Measurements: patent EP1724268A1, “COMPOUND HAVING TGF-BETA INHIBITORY ACTIVITY AND PHARMACEUTICAL COMPOSITION CONTAINING SAME” (KIRIN BEER KABUSHIKI KAISHA, priority 2004, dated 2005)
Read-outs that look alike come from different tables or passages of the source.

Tested on: TGFβ signal
Assay: TGFβ signal inhibitory activity, (SBE)4-Luc reporter in A549 cells (Test Examples 1A and 1B)
Format: cell-based, human
Conditions: Homo sapiens
Method in brief: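 Stable A549 line carrying (SBE)4-Luc Smad3-binding reporter treated with compound plus TGFβ-1 (2 ng/ml) for 4 hr; luciferase read by chemiluminescence. Percent inhibition relative to TGFβ-only and untreated cells, tested at 3 µM and 10 µM, some also at 1 µM.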

[1] = A549, 3 µM, compounds of Reference Examples (Test Example 1B), read-out: TGFβ inhibition rate, %
[2] = A549, 10 µM, compounds of Reference Examples (Test Example 1B), read-out: TGFβ inhibition rate, %
[3] = A549, test compound 3 µM, TGFβ-1 2 ng/ml, 4 hr, Table 1A, read-out: TGFβ inhibition rate, %
[4] = A549, test compound 10 µM, TGFβ-1 2 ng/ml, 4 hr, Table 1A, read-out: TGFβ inhibition rate, %
[5] = A549, test compound 3 µM, Reference Examples, Table 1B, read-out: TGFβ inhibition rate, %
[6] = A549, test compound 10 µM, Reference Examples, Table 1B, read-out: TGFβ inhibition rate, %
[7] = A549, compounds of Reference Examples (Test Example 1B), read-out: TGFβ inhibition rate, %

Structure (SMILES)	inhibition at 3 µM [1] [%]	inhibition at 10 µM [2] [%]	also measured
COc1cc2nccc(Oc3cc4ccccc4nc3-c3ccc(F)cc3)c2cc1OC [r285]	65	100	–
Cc1cc(Oc2ccnc3cc(-c4ccccc4N)ccc23)c(-c2ccccn2)nc1C [Compound 108, 2-[4-(5,6-Dimethyl-[2,2']bipyridinyl-3-yloxy)-quinolin-7-yl]-phenylamine]	–	–	inhibition at 3 µM [3]: 96%; inhibition at 10 µM [4]: 100%
COc1cc2nccc(Oc3cc4ccccc4nc3OC3CCCC3)c2cc1OC [r280]	45	88	–
COc1cc2c(Oc3cc4ccccc4nc3C)ccnc2cc1OC[C@H](O)CO [Compound r386]	99	–	–
COc1cc2nccc(Oc3ccccc3C(=O)/C=C/c3ccccc3)c2cc1OC [r57]	–	–	inhibition at 3 µM [5]: 10%; inhibition at 10 µM [6]: 55%
COc1cc2nccc(Oc3ccc(C)nc3-c3cccc(O)c3)c2cc1OC [Compound r237]	100	100	–
COc1cc2nccc(Oc3ccc(C)nc3-c3cccc(C)c3)c2cc1OC [Compound r229]	99	100	–
CCOC(=O)c1ccc(Cl)cc1Oc1ccnc2cc(OC)c(OC)cc12 [Compound r81]	–	–	inhibition at 3 µM [5]: 91%; inhibition at 10 µM [6]: 100%
COc1cc2c(Oc3cc4ccccc4nc3C)ccnc2cc1OCCCN1CCOCC1 [Compound r379]	100	100	–
Cc1ccc(-c2nc(C)c(C)cc2Oc2ccnc3cc(C(F)(F)F)ccc23)nc1 [r433]	91	100	–
COc1cc2nccc(Oc3c(Br)cc(Br)cc3C(=O)Nc3ccc(Br)cc3)c2cc1OC [Compound r113]	–	–	inhibition at 3 µM [5]: 0%; inhibition at 10 µM [6]: 96%
COc1ccc(C(=O)c2ccccc2)c(Oc2ccnc3cc(OC)c(OC)cc23)c1 [Compound r64]	–	–	inhibition at 3 µM [5]: 67%; inhibition at 10 µM [6]: 98%
COc1cc2c(Oc3cc(C)c(C)nc3-c3ccccc3)ccnc2cc1OCC(CO)CO [Compound r336]	100	–	–
Cc1cc(Oc2ccnc3ccc(-c4ncccn4)cc23)c(-c2ccccn2)nc1C [Compound 175, 5,6-Dimethyl-3-(6-pyrimidin-2-yl-quinolin-4-yloxy)-[2,2']bipyridine]	–	–	inhibition at 3 µM [3]: 97%; inhibition at 10 µM [4]: 100%
Cc1cc(Oc2ccnc3ccc(-c4cn[nH]c4)cc23)c(-c2ccccn2)nc1C [Compound 169, 5,6-Dimethyl-3-[6-(1H-pyrazol-4-yl)-quinolin-4-yloxy]-[2,2']bipyridine]	–	–	inhibition at 3 µM [3]: 100%; inhibition at 10 µM [4]: 100%
COc1cc2nccc(Oc3ccccc3C(=O)Nc3ccccc3)c2cc1OC [r104]	–	–	inhibition at 3 µM [5]: 0%; inhibition at 10 µM [6]: 58%
COc1ccc(Oc2ncnc3cc(OC)c(OC)cc23)c(C(C)=O)c1 [r162]	–	–	inhibition at 3 µM [5]: 5%; inhibition at 10 µM [6]: 54%
COc1cc2nccc(Oc3cc4ccccc4nc3C)c2cc1OCC(O)CO (stereo not shown) [r417]	98	100	–
COc1cc2c(Oc3cc(C)c(C)nc3-c3cccnc3)ccnc2cc1OCC1CO1 (stereo not shown) [Compound r348]	76	–	–
Cc1ccc(Oc2ccnc3ccc(OCCCN4CCN(c5ccccn5)CC4)cc23)c(-c2ncccn2)n1 [Compound 218, 4-(6-Methyl-2-pyrimidin-2-yl-pyridin-3-yloxy)-6-[3-(4-pyridin-2-yl-piperazin-1-yl)-propoxy]-quinoline]	–	–	inhibition at 3 µM [3]: 84%; inhibition at 10 µM [4]: 100%
COc1cc2nccc(Oc3cc4cccnc4cc3-c3ccccc3)c2cc1OC [Compound r299, 6,7-Dimethoxy-4-(7-phenyl-quinolin-6-yloxy)-quinoline]	99	100	–
COc1cc2c(Oc3cc4cccnc4nc3C)ccnc2cc1OCCCl [Compound r398]	78	97	–
CCc1ccc(Oc2ccnc3ccc(OCc4ccccc4)cc23)c(-c2ncccn2)n1 [Compound 190, 6-Benzyloxy-4-(6-ethyl-2-pyrimidin-2-yl-pyridin-3-yloxy)-quinoline]	–	–	inhibition at 3 µM [3]: 100%; inhibition at 10 µM [4]: 100%
COc1cc2nccc(Oc3ccc(C)cc3C(=O)c3ccc(OCCN4CCOCC4)cc3)c2cc1OC [Compound r191]	39	93	–
COc1cc2c(Oc3cc4ccccc4nc3C)ccnc2cc1OCCN1CCCC(C(N)=O)C1 (stereo not shown) [Compound r360]	100	100	–
CCCCOC(=O)c1ccccc1Oc1ccnc2cc(OC)c(OC)cc12 [Compound r98]	–	–	inhibition at 3 µM [5]: 4%; inhibition at 10 µM [6]: 93%
COc1cc2nccc(Oc3c(C)nc4ccccc4c3Br)c2cc1OC [r291]	14	78	–
COc1cc2c(Oc3cc4cccnc4nc3C)ccnc2cc1OCCCO [Compound r402]	90	100	–

Structure (SMILES)	inhibition at 3 µM [1] [%]	inhibition at 10 µM [2] [%]	also measured
CCOC(=O)c1cc(OC)ccc1Oc1ccnc2cc(OC)c(OC)cc12 [Compound r91]	–	–	inhibition at 3 µM [5]: 96%; inhibition at 10 µM [6]: 100%
COc1cc2c(Oc3ccc(C)cc3C(=O)c3ccccc3)ccnc2cc1OCCCCN1CCC(CO)CC1 [Compound r144]	–	–	inhibition at 3 µM [5]: 99%; inhibition at 10 µM [6]: 100%
COc1cc2nccc(Oc3cc4ccncc4cc3-c3ccccn3)c2cc1OC [Compound r303, 6,7-Dimethoxy-4-(7-pyridin-2-yl-isoquinolin-6-yloxy)-quinoline]	96	–	–
Cc1cc(Oc2ccnc3ccc(-c4cc5ccccc5o4)cc23)c(-c2ccccn2)nc1C [Compound 166, 3-(6-Benzofuran-2-yl-quinolin-4-yloxy)-5,6-dimethyl-[2,2']bipyridine]	–	–	inhibition at 3 µM [3]: 78%; inhibition at 10 µM [4]: 100%
COc1cc2nccc(Oc3cccnc3OC3CCCC3)c2cc1OC [Compound r204, 4-(2-Cyclopentyloxy-pyridin-3-yloxy)-6,7-dimethoxy-quinoline]	14	77	–
COc1cc2nccc(Oc3ccc(C)nc3-c3nccs3)c2cc1OC [r259]	–	–	inhibition at 1 µM [7]: 100%
COc1cc2nccc(Oc3ccc(Cl)cc3C(=O)c3ccccc3)c2cc1OC [Compound r69]	–	–	inhibition at 3 µM (A549, read-out: TGFβ inhibition rate, %): 100%
COc1cc2c(Oc3cc4ccccc4nc3C)ccnc2cc1OC[C@@H](O)CO [Compound r385]	100	100	–
COc1cc2nccc(Oc3cc4cccnc4nc3-c3ccccc3)c2cc1OC [Compound r422]	100	100	–
CCc1ccc(Oc2ccnc3ccc(OCc4ccccc4)cc23)c(-c2ccccn2)n1 [Compound 183, 3-(6-Benzyloxy-quinolin-4-yloxy)-6-ethyl-[2,2']bipyridine]	–	–	inhibition at 3 µM [3]: 100%; inhibition at 10 µM [4]: 100%
COc1cc2nccc(Oc3cc4ccccc4nc3CCC(C)C)c2cc1OC [r439]	43	95	–
COc1cc2nccc(Oc3cc(C)c(C)cc3C(C)=NN)c2cc1OC [Compound r193, {1-[2-(6,7-Dimethoxy-quinolin-4-yloxy)-4,5-dimethylphenyl]-ethylidene}-hydrazine]	74	99	–
COc1cc2c(Oc3cc(C)c(C)nc3-c3ccccn3)ccnc2cc1O [Compound r338]	92	100	–
COc1cc2nccc(Oc3c(C)cc4ncccc4c3Cl)c2cc1OC [r302]	30	90	–
COc1cc2nccc(Oc3ccc4ccccc4c3C(C)=O)c2cc1OC [r42]	–	–	inhibition at 3 µM [5]: 90%; inhibition at 10 µM [6]: 93%
COc1cc2nccc(Oc3cc(C)c(C)nc3-c3ccccn3)c2cc1Br [Compound 133, 3-(6-Bromo-7-methoxy-quinolin-4-yloxy)-5,6-dimethyl-[2,2']bip yridine]	–	–	inhibition at 3 µM [3]: 99%; inhibition at 10 µM [4]: 100%
COc1cc2nccc(Oc3ccc(C)cc3C(=O)C3CCCCC3)c2cc1OC [Compound r59]	–	–	inhibition at 3 µM [5]: 65%; inhibition at 10 µM [6]: 99%
COc1cc2c(Oc3ccc(C)cc3C(=O)c3ccccc3)ccnc2cc1OCCCCl [Compound r132]	–	–	inhibition at 3 µM [5]: 72%; inhibition at 10 µM [6]: 99%
COc1cc2c(Oc3ccc(C)cc3C(=O)c3ccccc3)ccnc2cc1OCCCCN1CCOCC1 [Compound r149]	–	–	inhibition at 3 µM [5]: 96%; inhibition at 10 µM [6]: 100%
COc1cc2c(Oc3cc4ccccc4nc3C)ccnc2cc1OCCN [Compound r354]	100	100	–
CCc1nc2ncccc2cc1Oc1ccnc2cc(OC)c(OC)cc12 [Compound r423]	88	100	–
COc1cc2nccc(Oc3cc(C)c(C)nc3-c3ccc(C)cn3)c2cc1OC [Compound r272]	98	100	–
COc1cc2nccc(Oc3cc(C)c(C)nc3-c3ccccn3)c2cc1OC [Compound r269]	–	–	inhibition at 1 µM [7]: 97%
COc1cc2c(Oc3ccc(C)cc3C(=O)c3ccccc3)ccnc2cc1OCC(O)Cn1ccnc1 (stereo not shown) [r160]	–	–	inhibition at 3 µM [5]: 98%; inhibition at 10 µM [6]: 100%
CCCOC(=O)c1cc(-c2ccc(F)cc2F)ccc1Oc1ccnc2cc(OC)c(OC)cc12 [Compound r96]	–	–	inhibition at 3 µM [5]: 19%; inhibition at 10 µM [6]: 65%
COc1cc2nccc(Oc3ccc(C)nc3-c3cc(C)no3)c2cc1OC [r258]	99	100	–
COc1cc2nccc(Oc3ccc(Cl)cc3C(=O)Nc3ccccc3)c2cc1OC [Compound r105]	–	–	inhibition at 3 µM [5]: 17%; inhibition at 10 µM [6]: 88%
